Measurements: US20250136619A1, “HETEROBIFUNCTIONAL COMPOUNDS AND THEIR USE IN TREATING DISEASE” (HALDA THERAPEUTICS OPCO, INC., priority 2021, published 2025)
Where two headings read alike, the source gives them in different places.

Key:
BTK = BTK (Homo sapiens (Human), UniProt Q06187); assay: KdELECT assay for binding affinity to BTK
Description: (§1) Compounds were tested using a KdELECT assay. Kinase-tagged T7 phage strains were prepared in an E. coli host derived from the BL21 strain. E. coli were grown to log-phase and infected with T7 phage and incubated with shaking at 32° C. until lysis. The lysates were centrifuged and filtered to remove cell debris. The remaining kinases were produced in HEK-293 cells and subsequently tagged with DNA for qPCR detection. Streptavidin-coated magnetic beads were treated with biotinylated small molecule ligands for 30 minutes at room temperature to generate affinity resins for kinase assays. The liganded beads were blocked with excess biotin and washed with blocking buffer (SeaBlock (Pierce), 1% BSA, 0.05% Tween 20, 1 mM DTT) to remove unbound ligand and to reduce non-specific binding. Binding reactions were assembled by combining kinases, liganded affinity beads, and test compounds in 1× binding buffer (20% SeaBlock, 0.17×PBS, 0.05% Tween 20, 6 mM DTT). Test compounds were prepared as 111X stocks in 100% DMSO. Kd values were determined using an 11-point 3-fold compound dilution series with three DMSO control points. All compounds for Kd measurements are distributed by acoustic transfer (non-contact dispensing) in 100% DMSO. The compounds were then diluted directly into the assays such that the final concentration of DMSO was 0.9%. All reactions performed in polypropylene 384-well plate. Each was a final volume of 0.02 mL. The assay plates were incubated at room temperature with shaking for 1 hour and the affinity beads were washed with wash buffer (1×PBS, 0.05% Tween 20). The beads were then re-suspended in elution buffer (1×PBS, 0.05% Tween 20, 0.5 μM nonbiotinylated affinity ligand) and incubated at room temperature with shaking for 30 minutes. The kinase concentration in the eluates was measured by qPCR.

CDK9 = CDK9 (Homo sapiens (Human), UniProt P50750); assay: KdELECT assay for binding affinity to CDK9
Description: as §1, with “KdELECT.” for “KdELECT assay.”, “1×binding” for “1× binding”

HEK293 cells = assay: Cellular growth inhibition assay (CellTiter-Glo), HEK293 cells; type: cell-based; conditions: HEK293 cells, three days of compound treatment, CellTiter-Glo 2.0, read-out: CTG HEK293 GI50
Description: (§2) HEK293 and HeLa cells were cultured in DMEM medium supplemented with 10% fetal bovine serum and 1% Penn/Strep. Cells were seeded in white 384-well plates at 500 cells/well in […] complete medium. Following seeding, plates were spun at 300×g for three minutes and cultured at 37° C. with 5% CO2 in a humidified tissue culture incubator.
(§3) After 24 hours, compounds were titrated in 100% DMSO and diluted in complete cell culture medium. […] of compound/media mixture was added to cells to bring total volume in well to […]. DMSO alone was used as a negative control. Plates were then spun at 300×g for three minutes and stored at 37° C. with 5% CO2 for three days.
(§4) On Day 0 and Day 3 of compound treatment, cell viability was quantified with CellTiter-Glo 2.0 reagent (Promega). After equilibrating microplates at room temperature for 30 minutes, 25 μL CellTiter-Glo 2.0 reagent was dispensed into each well to bring total volume to […]. Plates were mixed on shaker for 2 minutes at 500 rpm, followed by a 10-minute incubation at room temperature. Following a quick spin, luminescence readings were measured with an En Vision Plate Reader. Data was normalized to DMSO treated Day 0 and Day 3 readings. A four-parameter non-linear regression curve fit was applied to dose-response data in GraphPad Prism data analysis software to determine the half maximal growth inhibitory concentration (GI50) for each compound.

HeLa cells = assay: Cellular growth inhibition assay (CellTiter-Glo), HeLa cells; type: cell-based; conditions: HeLa cells, three days of compound treatment, CellTiter-Glo 2.0, read-out: CTG HELA GI50
Description: as §2, §3, §4

CDK9, sequence (P50750 whole entry): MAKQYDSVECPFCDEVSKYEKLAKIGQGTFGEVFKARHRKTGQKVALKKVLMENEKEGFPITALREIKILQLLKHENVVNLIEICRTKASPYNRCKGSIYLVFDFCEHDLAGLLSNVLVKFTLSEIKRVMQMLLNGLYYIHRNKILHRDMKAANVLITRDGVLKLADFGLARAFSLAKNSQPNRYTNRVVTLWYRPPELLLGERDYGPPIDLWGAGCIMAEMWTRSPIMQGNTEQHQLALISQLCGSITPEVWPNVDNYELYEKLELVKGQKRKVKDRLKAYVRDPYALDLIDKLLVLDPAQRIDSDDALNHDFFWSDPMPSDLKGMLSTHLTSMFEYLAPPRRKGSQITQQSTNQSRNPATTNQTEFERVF
BTK, sequence (Q06187 whole entry): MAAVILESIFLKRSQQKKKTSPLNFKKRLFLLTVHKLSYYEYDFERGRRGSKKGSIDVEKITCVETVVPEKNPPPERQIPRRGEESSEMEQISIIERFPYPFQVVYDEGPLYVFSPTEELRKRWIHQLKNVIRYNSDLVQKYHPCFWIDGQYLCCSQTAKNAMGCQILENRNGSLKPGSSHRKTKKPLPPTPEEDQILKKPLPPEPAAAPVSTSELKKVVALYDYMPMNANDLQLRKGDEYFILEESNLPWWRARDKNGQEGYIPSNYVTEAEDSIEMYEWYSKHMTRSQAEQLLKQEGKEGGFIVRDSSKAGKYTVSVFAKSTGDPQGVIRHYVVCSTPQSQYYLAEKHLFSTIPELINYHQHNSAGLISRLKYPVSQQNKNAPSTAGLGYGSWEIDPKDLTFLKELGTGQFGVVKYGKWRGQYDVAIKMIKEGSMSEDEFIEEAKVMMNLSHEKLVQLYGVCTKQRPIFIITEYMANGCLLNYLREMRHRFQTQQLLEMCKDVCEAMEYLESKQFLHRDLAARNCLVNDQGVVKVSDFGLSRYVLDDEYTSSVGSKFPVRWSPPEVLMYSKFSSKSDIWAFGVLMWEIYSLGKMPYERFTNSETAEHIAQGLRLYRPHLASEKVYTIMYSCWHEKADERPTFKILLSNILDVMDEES

Row | SMILES | Kd (BTK) | Kd (CDK9) | other results
1 | CC[C@@H]1C(=O)N(C)c2cnc(Nc3ccc(C(=O)NCCOCCOCCOCCOCCOCCOCCOC/C=C/C(=O)N4CCC[C@@H](n5nc(-c6ccc(Oc7ccccc7)cc6)c6c(N)ncnc65)C4)cc3OC)nc2N1C1CCCC1 [Compound I-39, N-[2-[2-[2-[2-[2-[2-[2-[(E)-4-[(3R)-3-[4-amino-3-(4-phenoxyphenyl)pyrazolo[3,4-d]pyrimidin-1-yl]-1-piperidyl]-4-oxo-but-2-enoxy]ethoxy]ethoxy]ethoxy]ethoxy]ethoxy]ethoxy]ethyl]-4-[[(7R)-8-cyclopentyl-7-ethyl-5-methyl-6-oxo-7H-pteridin-2-yl]amino]-3-methoxy-benzamide] | < 50 nM | – | –
2 | C=CC(=O)N1CCN([C@@H](CC2CC2)c2ccc([C@H](C)Nc3ncc4c(n3)N(CCOCCOCCOc3ccc(CNc5cc(N6CCCC[C@H]6CCO)nc6c(CC)cnn56)cn3)C(=O)OC4)cc2)CC1 [Compound I-55] | – | 50 to 500 nM | –
3 | C=CC(=O)N1CCN([C@@H](CC2CC2)c2ccc([C@H](C)Nc3ncc4c(n3)N(CCOCCOCCOCCOCCOCCOCCn3cc(CNc5cc(N6CCCC[C@H]6CCO)nc6c(CC)cnn56)ccc3=O)C(=O)OC4)cc2)CC1 [Compound I-87] | – | < 50 nM | –
4 | CC[C@@H]1C(=O)N(C)c2cnc(Nc3ccc(C(=O)NCCCCCCCCOC/C=C/C(=O)N4CCC[C@@H](n5nc(-c6ccc(Oc7ccccc7)cc6)c6c(N)ncnc65)C4)cc3OC)nc2N1C1CCCC1 [Compound I-36, N-[8-[(E)-4-[(3R)-3-[4-amino-3-(4-phenoxyphenyl)pyrazolo[3,4-d]pyrimidin-1-yl]-1-piperidyl]-4-oxo-but-2-enoxy]octyl]-4-[[(7R)-8-cyclopentyl-7-ethyl-5-methyl-6-oxo-7H-pteridin-2-yl]amino]-3-methoxy-benzamide] | 50 to 500 nM | – | –
5 | CCc1cnn2c(NCc3ccc(OCCOCCOCCNS(=O)(=O)c4cc(F)cc(N(C(=O)[C@@H]5CCC(=O)N5c5cc(C#N)ccn5)C(C(=O)NC5CC(F)(F)C5)c5ccccc5Cl)c4)nc3)cc(N3CCCC[C@H]3CCO)nc12 (stereo partly drawn) [Compound I-92] | – | 500 to 2500 nM | GI50 (HEK293 cells): < 500 nM; GI50 (HeLa cells): < 500 nM
6 | CCc1cnn2c(NCc3ccc(OCCOCCOCCOCCOCC(=O)N4CC(=O)N(c5cc(C#N)ccn5)[C@H](C(=O)N(c5cc(F)cc(F)c5)C(C(=O)NC5CC(F)(F)C5)c5ccccc5Cl)C4)nc3)cc(N3CCCC[C@H]3CCO)nc12 (stereo partly drawn) [Compound I-98, (2S)—N-[1-(2-chlorophenyl)-2-[(3,3-difluorocyclobutyl)amino]-2-oxo-ethyl]-1-(4-cyano-2-pyridyl)-N-(3,5-difluorophenyl)-4-[2-[2-[2-[2-[2-[[5-[[[3-ethyl-5-[(2S)-2-(2-hydroxyethyl)-1-piperidyl]pyrazolo[1,5-a]pyrimidin-7-yl]amino]methyl]-2-pyridyl]oxy]ethoxy]ethoxy]ethoxy]ethoxy]acetyl]-6-oxo-piperazine-2-carboxamide] | – | 50 to 500 nM | GI50 (HEK293 cells; Homo sapiens, 72 h): < 500 nM; GI50 (HeLa cells; Homo sapiens, 72 h): < 500 nM
7 | CN(OCCOCCOCCOCCOCCOCCOCCOC/C=C/C(=O)N1CCC[C@@H](n2nc(-c3ccc(Oc4ccccc4)cc3)c3c(N)ncnc32)C1)C(=O)N1N=C(c2cc(F)ccc2F)SC1(CCCN)c1ccccc1 (stereo partly drawn) [Compound I-51] | < 50 nM | – | GI50 (HEK293 cells; Homo sapiens, 72 h): 1500 to 5000 nM; GI50 (HeLa cells; Homo sapiens, 72 h): 500 to 1500 nM
8 | C=CC(=O)N1CCN([C@@H](CC2CC2)c2ccc([C@H](C)Nc3ncc4c(n3)N(CCOCCOCCn3cc(CNc5cc(N6CCCC[C@H]6CCO)nc6c(CC)cnn56)ccc3=O)C(=O)OC4)cc2)CC1 [Compound I-56] | – | 50 to 500 nM | –
9 | CCc1cnn2c(NCc3ccc(OCCOCCOCCOCCOCCOCCOCCOCCOCCN(C)C/C=C/C(=O)N4CCC[C@@H](n5nc(-c6ccc(Oc7ccccc7)cc6)c6c(N)ncnc65)C4)nc3)cc(N3CCCC[C@H]3CCO)nc12 [Compound I-48] | < 50 nM | – | GI50 (HEK293 cells; Homo sapiens, 72 h): 1500 to 5000 nM; GI50 (HeLa cells; Homo sapiens, 72 h): 1500 to 5000 nM
10 | C=CC(=O)N1CCN([C@@H](CC2CC2)c2ccc([C@H](C)Nc3ncc4c(n3)N(CCOCCOCCOCCOCCOCCOCCNS(=O)(=O)c3ccc(Nc5ncc(Br)c(Nc6cccc(F)c6C(N)=O)n5)cc3)C(=O)OC4)cc2)CC1 [Compound I-86, 2-[[5-bromo-2-[4-[2-[2-[2-[2-[2-[2-[2-[7-[[(1S)-1-[4-[(1S)-2-cyclopropyl-1-(4-prop-2-enoylpiperazin-1-yl)ethyl]phenyl]ethyl]amino]-2-oxo-4H-pyrimido[4,5-d][1,3]oxazin-1-yl]ethoxy]ethoxy]ethoxy]ethoxy]ethoxy]ethoxy]ethylsulfamoyl]anilino]pyrimidin-4-yl]amino]-6-fluoro-benzamide] | – | 500 to 2500 nM | –
11 | CC[C@@H]1C(=O)N(C)c2cnc(Nc3ccc(C(=O)NCCOCCOCCOC/C=C/C(=O)N4CCC[C@@H](n5nc(-c6ccc(Oc7ccccc7)cc6)c6c(N)ncnc65)C4)cc3OC)nc2N1C1CCCC1 [Compound I-37, N-[2-[2-[2-[(E)-4-[(3R)-3-[4-amino-3-(4-phenoxyphenyl)pyrazolo[3,4-d]pyrimidin-1-yl]-1-piperidyl]-4-oxo-but-2-enoxy]ethoxy]ethoxy]ethyl]-4-[[(7R)-8-cyclopentyl-7-ethyl-5-methyl-6-oxo-7H-pteridin-2-yl]amino]-3-methoxy-benzamide] | 50 to 500 nM | – | –
12 | CCc1cnn2c(NCc3ccc(=O)n(CCOCCOCCNS(=O)(=O)c4cc(F)cc(N(C(=O)[C@@H]5CCC(=O)N5c5cc(C#N)ccn5)C(C(=O)NC5CC(F)(F)C5)c5ccccc5Cl)c4)c3)cc(N3CCCC[C@H]3CCO)nc12 (stereo partly drawn) [Compound I-93, (2S)—N-[1-(2-chlorophenyl)-2-[(3,3-difluorocyclobutyl)amino]-2-oxo-ethyl]-1-(4-cyano-2-pyridyl)-N-[3-[2-[2-[2-[5-[ [[3-ethyl-5-[(2S)-2-(2-hydroxyethyl)-1-piperidyl]pyrazolo[1,5-a]pyrimidin-7-yl]amino]methyl]-2-oxo-1-pyridyl]ethoxy]ethoxy]ethylsulfamoyl]-5-fluoro-phenyl]-5-oxo-pyrrolidine-2-carboxamide] | – | 500 to 2500 nM | GI50 (HEK293 cells; Homo sapiens, 72 h): > 5000 nM; GI50 (HeLa cells; Homo sapiens, 72 h): 1500 to 5000 nM
13 | NC(=O)c1c(F)cccc1Nc1nc(Nc2ccc(S(=O)(=O)NCCCCCCCC/C=C/C(=O)N3CCC[C@@H](n4nc(-c5ccc(Oc6ccccc6)cc5)c5c(N)ncnc54)C3)cc2)ncc1Br [Compound I-17] | 500 to 2500 nM | – | –
14 | C=CC(=O)N1CCN([C@@H](CC2CC2)c2ccc([C@H](C)Nc3ncc4c(n3)N(CCOCCOCCOCCOCCOCCOCCOc3ccc(CNc5cc(N6CCCC[C@H]6CCO)nc6c(CC)cnn56)cn3)C(=O)OC4)cc2)CC1 [Compound I-83] | – | < 50 nM | –
